Laboratory results published in patent publication US9259476B2, “Monophosphorylated lipid A derivatives” (WAYNE STATE UNIVERSITY, priority 2009, dated 2016).

Columns and labels:
[1] = test system: GM3NPhAc; test: ELISA analysis of GM3NPhAc-specific immune responses in immunized mice; format: in vivo
Description: FIG. 1 relates to the ELISA analysis of GM3NPhAc-specific immune responses in mice. For ELISA assays, GM3NPhAc-HSA was used as the capture antigen. Goat anti-mouse kappa antibodies were used to detect antibodies bond to the capture antigen. Titers are determined by linear regression analysis and defined as the highest dilution yielding an optical density of 0.2. (a) GM3NPhAc-specific total antibody contents in day −1, 27 and 38 mice sera. Mice were immunized with 1N containing 15 μg of GM3NPhAc. Each line represents the antibody level in serum pooled from a group of five mice. (b) Comparison of GM3NPhAc-specific total antibody titers in day 38 mice sera. Mice were immunized with 1N containing 15, 6 or 3 μg of GM3NPhAc. (c) Comparison of immunological results of conjugates 1, 2 and T-1. 1N: conjugate 1 alone; 1A: conjugate 1+an external adjuvant; 2N: conjugate 2 alone; 2A: conjugate 2+an external adjuvant; T-1N: conjugate T-1 alone. Each dot represents the GM3NPhAc-specific immune response of individual mouse and the black lines represent the average antibody level of a group of five mice.
FIG. 2 relates to the titer analysis of different isotypes of GM3NPhAc-specific antibodies induced by 1N (left) and T-1N (right). […] Titers are determined by linear regression analysis and defined as the highest dilution yielding an optical density of 0.2. […]

[2] = test system: SKMEL-28 cells; test: In vitro glycoengineered expression of GM3NPhAc on cell surface, flow cytometry with mAb 2H3; format: cell-based, human
Description: (§1) FIG. 3 depicts histograms of the glycoengineering of B16F0 cells (a), 3T3 A31 cells (b) and SKMEL-28 cells (c) using ManNPhAc which induces expression of GM3NPhAc on the cell surface. Cells were cultured with 0, 0.01, 0.02 and 0.04 mM of ManNPhAc, stained with mAb 2H3, labeled with FITC-labeled goat anti-mouse kappa antibody, and analyzed by flow cytometry. Data are presented as raw histograms derived from 20,000 events.
(§2) B16F0, 3T3 A31 and SKMEL-28 cells were incubated with 0.01, 0.02 and 0.04 mM of ManNPhAc or NeuNPhAc, harvested at different time, washed with FACS buffer (phosphate-buffered saline (PBS) containing 1% bovine serum albumin), and incubated on ice for 15 minutes with 100 μL of normal mouse serum (NMS) diluted 1:100 in FACS buffer. Cells were washed 3 times with FACS buffer, and incubated for 30 minutes on ice with 100 μL of anti-GM3NPhAc mAb 2H3 (cell culture supernatant) diluted 1:10 in FACS buffer. Cells were washed again (3 times) and incubated for 30 minutes on ice with 1 μg of FITC-conjugated goat anti-mouse kappa antibody diluted in FACS buffer (100 μL). After washing 3 times with FACS buffer, the expression of GM3NPhAc on cell surfaces was evaluated on a Becton Dickenson FACScan flow cytometer. Data are presented as raw histograms derived from 20000 events.

[3] = test system: B16F0 cells; test: as above; format: cell-based, murine
Description: as §1
(§3) FIG. 4 depicts histograms of the glycoengineering of B16F0 (a) and 3T3 A31 (b) using NeuNPhAc induces expression of GM3NPhAc on the cell surface. Cells were cultured with 0, 0.01, 0.02 and 0.04 mM of NeuNPhAc, stained with mAb 2H3, labeled with FITC-labeled goat anti-mouse kappa antibody, and analyzed by flow cytometry. Data are presented as raw histograms derived from 10,000 events.
as §2

[4] = test system: 3T3 A31 cells; test: as above; format: cell-based, murine
Description: as §1, §3, §2

With CCC(=O)OC1C(NC(=O)C[C@@H](CC)OC(=O)CC)[C@H](OCCNC(=O)CCC(=O)NCc2cn(CCOC3OC(CO)[C@@H](O[C@@H]4OC(CO)[C@H](O)C(O[C@]5(C(=O)O)CC(O)[C@@H](NC(=O)Cc6ccccc6)C([C@H](O)[C@H](O)CO)O5)C4O)C(O)C3O)nn2)OC(CO[C@@H]2OC(CO)[C@@H](OP(=O)(O)O)C(OC(=O)CC)C2NC(=O)C[C@@H](CC)OC(=O)CC)[C@H]1O (stereo partly drawn) [Compound T-1] the “Isotypes of GM3NPhAc-specific antibodies (IgM, IgG1, IgG2a, IgG3)” value ([1]; day 38 mice sera, conjugate alone) was “not only GM3NPhAc-specific IgM and IgG1 antibodies, but also much higher titers of IgG3 antibody” and the “GM3NPhAc-specific total antibody immune response” value ([1]; liposome of conjugate alone, no external adjuvant (groups 1N, 2N, T-1N), 15 μg of GM3NPhAc, s.c. day 0, 14, 21, 28) was “comparable to that induced by 1”.
With [2H]C(C(=O)N[C@@H]1C(O)O[C@H](CO)[C@@H](O)[C@@H]1O)c1ccccc1 (stereo partly drawn) [ManNPhAc] the “Cells showing significant GM3NPhAc labelling above the control group” value ([2]; 0.01 mM, 96 hours) was 100%, the “Expression of GM3NPhAc on cell surface” value ([2]; 0.02 mM, 96 hours) was “further increased” and the “Expression of GM3NPhAc on cell surface” value ([2]; 0.04 mM, 96 hours) was “further increased”. For the same molecule, the “Concentration at which a plateau level of GM3NPhAc expression was reached” value ([2]; data not shown) was no less than 0.04 mM, the “Cells showing labelling of GM3NPhAc” value ([3]; 0.01 mM) was “only partial B16F0 cell” and the “Expression of GM3NPhAc on cell surface” value ([3]; 0.01 mM, 72 hours) was “significant expression of GM3NPhAc”. For the same molecule, the “Concentration dependence of GM3NPhAc expression” value ([3]; 0.01, 0.02, 0.04 mM, 72 hours) was “dependent on ManNPhAc concentrations”, the “Cells showing labelling of GM3NPhAc” value ([4]; 0.01 mM) was “no 3T3 A31 cell showing labelling of GM3NPhAc” and the “Labelling for GM3NPhAc compared to control group” value ([4]; 0.01 mM) was “no substantial labelling”. The “Labelling for GM3NPhAc compared to control group” value ([4]; 0.02 mM) was “no substantial labelling” and the “Labelling for GM3NPhAc compared to control group” value ([4]; 0.04 mM) was “started to show labelling”.
For O=C(Cc1ccccc1)N[C@H]1[C@H]([C@H](O)[C@H](O)CO)OC(O)(C(=O)O)C[C@@H]1O (stereo partly drawn) [NeuNPhAc], the “Expression of GM3NPhAc on cell surface relative to ManNPhAc” value ([3]; 72 hours, same concentrations (0.01, 0.02, 0.04 mM)) was “more significant expression of GM3NPhAc than that incubated with ManNPhAc” and the “Utilization to express GM3NPhAc on cell surface” value ([4]; 0.01, 0.02, 0.04 mM) was “much more efficiently to express GM3NPhAc, even better than B16F0 cancer cells”.
